Results reported in patent US6232314A, “Arylalkylpiperazine compounds as antioxidants” (Monash University, priority 1996, dated 2001).
Read-outs that look alike come from different tables or passages of the source.

How the values were obtained:
[1] = system: murine neocortical neurones; experiment: Assay for NMDA-induced toxicity in neuronal cultures (MTT); type: cell-based; settings: Mus musculus, NMDA 600 μM, 1 h, compound added 30 min prior, read-out: EC50 (inhibition of NMDA-induced toxicity)
Description: Neuronal cell death was assessed using a 3-(4,5-dimethylthiazol-2yl)-2,5-diphenyltetrazolium bromide (MTT) assay in which NMDA-induced cellular changes are reflected as altered mitochondrial activity (Ankarcrona et al., 1995), as estimated by the formation of a formazan dye, which is measured spectrophotometrically. The procedure employed is essentially that of Roehm et al. (1991) with minor modifications as previously described elsewhere in work from our laboratories Larm et al. (1996).
Primary cultures of murine neocortical neurones were established as described elsewhere (Larm et al., 1996). The effects of experimental compounds were tested in the cultures at 8 days in vitro. Exposure to NMDA (600 μM, 1 h) and other compounds was performed in an humidified incubator (5% CO2, 8% O2) at 37° C. in anti-oxidant free medium with compounds under evaluation being added 30 min prior to NMDA. For these conditions the culture medium was modified by omitting the following components: D,L-α-tocopherol, D,L-α-tocopherol acetate, catalase, superoxide dismutase and L-glutamine. Other details are described in Larm et al. (1996). Absorbance was read at 570 nm using a Ceres UV900 microplate reader. Control cultures were included in each experiment containing either vehicle alone or vehicle plus compound. These controls were taken as 100% neuronal viability, under the experimental conditions, and each experiment also included 500 μM L-glutamate representing 100% glutamatergic neuronal cell death. Background cell death in vehicle control cultures was 5-8%.
Concentration-response curves were generated as described elsewhere (Larm et al., 1996).

[2] = system: lipid peroxidation (MDA formation) in rat brain homogenate; experiment: Antioxidant assay: Fe3+-stimulated lipid peroxidation (TBARs / MDA formation) in rat brain homogenate; type: biochemical
Excerpt: Lipid peroxidation has been assessed in the present study using two procedures adopted from that described by Ohkawa et al. (1979) and Cheng et al. (1994). The compounds of the present invention have shown significant antioxidant effect in both assay systems.
Malondialdehyde (MDA) is one of the breakdown products of lipid peroxidation. MDA reacts with thiobarbituric acid (TBA) to produce a characteristic pink colour that can be measured spectrophotomerically. […] The present method has been modified from those described by Ohkawa et al. (1979) and Cheng et al. (1994).
Briefly, rat brain 10% homogenates were prepared in aqueous 20 mM Tris-HCl buffer, pH 7.4 media using a Polytron homogeniser. Assays contained 100 μl of rat brain homogenate and various concentrations of test compound (10 μl) were incubated for 10 min at 37° C. Ten μl of 1.0 or 0.1 mM Fe^3+ solution was then added to stimulate lipid peroxidation and the homogenates were incubated for a further 30 min at 37° C. The reaction was stopped by addition of sodium dodecyl sulphate (100 μl of 8.1% wt/vol solution) and 750 μl of 20% sodium acetate buffer (pH 3.5). The precipitated proteins were then removed by centrifugation at 10000 g for 15 min. Five hundred μl of clear supernatant was heated with 1 ml TBA solution (0.8% wt/vol) at 95° C. for 60 min. The samples were cooled and 200 μl of each sample was pipetted into a 96 well plate and absorbencies read at 532 nm using a Ceres UV900C microplate reader. Blank values representing samples containing 20 mM Tris-HCl and Fe^3+ only were subtracted from all values. Each value was expressed as a percentage of that for samples containing homogenate and Fe^3+ only (ie, no drug). From concentration response curves the concentrations causing 50% inhibition of MDA formation (IC50 values) for the test compounds were determined by computer-assisted linear regression analysis according to published methods (Leutner, 1982). These compared favourably with the values obtained in the assay with the benchmark antioxidant compound trolox. […]

[3] = molecular target: NMDA receptor-ionophore complex (polyamine-sensitive ifenprodil binding site); experiment: NMDA assay: competitive binding against [125I]ifenprodil in rat cortical membranes; settings: 30 min, 20° C., pH 7.7
Description: The NMDA receptor-ionophore complex consists of a number of interacting domains, including one for polyamines where ifenprodil binds to exert its non-competitive antagonism.
The purified material was stored in methanol at -20° C.
Incubations were for 30 min. at 20° C., in triplicate, employing 12 concentrations of competing drugs. Non-specific binding was defined with 10 mM spermine. Assays were terminated by rapid filtration through GF/B filter paper and washing.

[4] = Gotti et al., 1988; cited from earlier work
[5] = system: polyamine sensitive binding site of the NMDA receptor complex; settings: Carter et al., Reynolds et al., Robinson et al.; cited from earlier work
[6] = system: methamphetamine-induced loss of neostriatal tyrosine hydroxylase activity; settings: mice; Sonsalla et al., 1991; cited from earlier work
[7] = Fe^3+ 100 μM, read-out: ~IC50 (inhibition of MDA formation), Fe^3+ 100 μM
[8] = Fe^3+ 1000 μM, read-out: ~IC50 (inhibition of MDA formation), Fe^3+ 1000 μM

SMILES | EC50 [1] [µM] | IC50 [2, 7] [µM] | IC50 [2, 8] [µM] | Ki [3] [µM] | neuroprotective properties / antiischaemic [4] | interaction with the polyamine sensitive site of the NMDA receptor complex [5] | protection from methamphetamine-induced loss of neostriatal tyrosine hydroxylase activity [6]
C[C@@H]([C@H](O)c1ccc(O)cc1)N1CCN(Cc2cc(C(C)(C)C)c(O)c(C(C)(C)C)c2)CC1 (relative stereo) | 3.01 |  |  |  |  |  | 
C[C@H]([C@H](O)c1ccc(O)cc1)N1CCN(Cc2cc(C(C)(C)C)c(O)c(C(C)(C)C)c2)CC1 (relative stereo) [2 ((R, R)-racemic)] |  | ~16.8 | ~14.9 | 15.7 ± 4.6 |  |  | 
C[C@@H]([C@H](O)c1ccc(O)cc1)N1CCN(Cc2cc(C(C)(C)C)c(O)c(C(C)(C)C)c2)CC1 (relative stereo) [2 ((R, S)-racemic)] |  | ~23.8 | ~24.1 | 14.5 ± 5.6 |  |  | 
C[C@H]([C@H](O)c1ccc(O)cc1)N1CCN(Cc2cc(C(C)(C)C)c(O)c(C(C)(C)C)c2)CC1 (relative stereo) [Compound 2 ((R, R)-racemic)] | 1.28 |  |  |  |  |  | 
CC(C)(C)c1cc(CN2CCN(CC(O)c3ccc(O)cc3)CC2)cc(C(C)(C)C)c1O (stereo not shown) [Compound 1, 1-(2-(4-hydroxyphenyl)-2-hydroxy)ethyl-4-(3,5-bis(1,1-dimethylethyl)-4-hydroxyphenyl)methylpiperazine] |  | ~32.7 | ~18.3 | 13 ± 0.6 |  |  | 
CC(C)(C)c1cc(CN2CCN(CC(O)c3ccc(Cl)cc3)CC2)cc(C(C)(C)C)c1O (stereo not shown) [Compound 33, 1-(2-(4-Chlorophenyl)-2-hydroxy)ethyl-4-(3,5-bis(1,1-dimethylethyl)-4-hydroxyphenyl)methylpiperazine] | 0.39 | ~57.2 | ~41.4 | 10.8 ± 0.6 |  |  | 
CC(C(O)c1ccc(Cl)cc1)N1CCN(Cc2cc(C(C)(C)C)c(O)c(C(C)(C)C)c2)CC1 (stereo not shown) [Compound 34, 1-(2-(4-Chlorophenyl)-2-hydroxy-1-methyl)ethyl-4-(3,5-bis(1,1-dimethylethyl)-4-hydroxyphenyl)methylpiperazine] |  | ~25.4 | ~36.3 | 14.6 ± 2.8 |  |  | 
CC(C)(C)c1cc(CN2CCN(CCC(O)c3ccc(Cl)cc3)CC2)cc(C(C)(C)C)c1O (stereo not shown) [Compound 35, 1-(3-(4-Chlorophenyl)-3-hydroxy)propyl-4-(3,5-bis(1,1-dimethylethyl)-4-hydroxyphenyl)methylpiperazine] |  | ~27.9 | ~9.3 | 16.8 ± 3.2 |  |  | 
Cc1c(C)c2c(c(C)c1O)CCC(C)(CN1CCN(CC(O)c3ccc(Cl)cc3)CC1)O2 (stereo not shown) [Compound 49] | 2.9 | ~3.6 | ~2.4 | 15.2 ± 3.9 |  |  | 
CC(C)(C)c1cc(CN2CCN(CC(O)c3ccc(Br)cc3)CC2)cc(C(C)(C)C)c1O (stereo not shown) [Compound 65, 1-(2-(4-bromophenyl)-2-hydroxy)ethyl-4-(3,5-bis(1,1-dimethylethyl)-4-hydroxyphenyl)methylpiperazine] | 0.24 | ~96.8 | ~53.3 | 7 ± 1.5 |  |  | 
CC(C)(C)c1cc(CN2CCN(CC(O)c3ccc(F)cc3)CC2)cc(C(C)(C)C)c1O (stereo not shown) [Compound 161, 1-(2-(4-fluorophenyl)-2-hydroxy)ethyl-4-(3,5-bis(1,1-dimethylethyl)-4-hydroxyphenyl)methylpiperazine] |  | ~19.5 | ~15.2 | 5.4 ± 0.6 |  |  | 
CC(C)(C)c1cc(CN2CCN(CC(O)c3ccc(OC(F)(F)F)cc3)CC2)cc(C(C)(C)C)c1O (stereo not shown) [Compound 193, 1-(2-(4-trifluoromethoxyphenyl)-2-hydroxy)ethyl-4-(3,5-bis(1,1-dimethylethyl)-4-hydroxyphenyl)methylpiperazine] |  | ~59.6 | ~22.3 | 11.7 ± 1 |  |  | 
CC(C)(C)c1cc(CN2CCN(CC(O)c3ccc4c(c3)OCO4)CC2)cc(C(C)(C)C)c1O (stereo not shown) [Compound 211, 1-(2-(3,4-methylenedioxyphenyl)-2-hydroxy)ethyl-4-(3,5-bis(1,1-dimethylethyl)-4-hydroxyphenyl)methyl piperazine] |  |  |  | 19.1 ± 5.7 |  |  | 
CC(C)(C)c1cc(CN2CCN(CC(O)c3ccc(Cl)s3)CC2)cc(C(C)(C)C)c1O (stereo not shown) [Compound 229, 1-(2-(2-chlorothiophen-5-yl)-2-hydroxy)ethyl-4-(3,5-bis(1,1-dimethylethyl)-4-hydroxyphenyl)methylpiperazine] |  |  |  | 19.6 ± 5.2 |  |  | 
COc1ccc(OC)c(C(O)CN2CCN(Cc3cc(C(C)(C)C)c(O)c(C(C)(C)C)c3)CC2)c1 (stereo not shown) [Compound 247, 1-(2-(2,5-dimethoxyphenyl)-2-hydroxy)ethyl-4-(3,5-bis(1,1-dimethylethyl)-4-hydroxyphenyl)methylpiperazine] |  | ~9.9 | ~10.3 | 8.5 ± 3.1 |  |  | 
Cc1cc(CN2CCN(CC(O)c3ccc(Cl)cc3)CC2)cc(C(C)(C)C)c1O (stereo not shown) [Compound 265, 1-(2-(4-chlorophenyl)-2-hydroxy)ethyl-4-(3-(1,1-dimethylethyl)-4-hydroxy-5-methylphenyl)methylpiperazine] |  | ~59.4 | ~38.5 | 13.2 ± 2.6 |  |  | 
CC(C)(C)c1cc(CN2CCN(CC(O)c3cccc([N+](=O)[O-])c3)CC2)cc(C(C)(C)C)c1O (stereo not shown) [Example 6, 1-(2-(3-nitrophenyl)-2-hydroxy)ethyl-4-(3,5-bis(1,1-dimethylethyl)-4-hydroxyphenyl)methyl piperazine] |  | ~32.4 | ~26.6 | 15.1 ± 6.1 |  |  | 
CC(C)(C)c1cc(CN2CCN(CC(O)c3cccc(Cl)c3)CC2)cc(C(C)(C)C)c1O (stereo not shown) [Example 12, 1-(2-(3-chlorophenyl)-2-hydroxy)ethyl-4-(3,5-bis(1,1-dimethylethyl)-4-hydroxyphenyl)methylpiperazine] | 0.76 |  |  |  |  |  | 
Cc1cc(OCCN2CCN(CC(O)c3ccc(Cl)cc3)CC2)c(C)c(C)c1O (stereo not shown) [Example 21, 1-(2-(4'-chlorophenyl)-2-hydroxy)ethyl-4-(2-(2', 3', 5'-trimethyl-4'-hydroxyphenoxy))ethyl piperazine] |  | < 3 | < 1 | 6.1 ± 2 |  |  | 
OC(CN1CCC(Cc2ccc(F)cc2)CC1)c1ccc(Cl)cc1 (stereo not shown) [eliprodil] |  |  |  |  | neuroprotective properties in models of neurodegeneration following ischaemia | interacting with the polyamine sensitive binding site of the NMDA receptor | 
CC(C(O)c1ccc(O)cc1)N1CCC(Cc2ccccc2)CC1 (stereo not shown) [ifenprodil] |  |  |  | 19.5 ± 1.2 | neuroprotective properties in models of neurodegeneration following ischaemia | interacting with the polyamine sensitive binding site of the NMDA receptor | protect mice from the methamphetamine-induced loss of neostriatal tyrosine hydroxylase activity
Cc1c(C)c2c(c(C)c1O)CCC(C)(C(=O)O)O2 (stereo not shown) [trolox, reference compound] |  | ~88.2 | ~90.8 |  |  |  | 
